This note sets out measurements from patent US20080045534A1, “Derivatives of 1,3-diamino benzene as potassium channel modulators” (Valeant Pharmaceuticals North America, priority 2006, published 2008).

Where only a bound is given, the exact number is not on record here.

In the test the target is T1, KCNQ 2/3 (Rattus norvegicus, UniProt O88943+O88944).
T1 construct: endogenous in cells; host or cells: PC-12 cells differentiated with NGF-7s
The experiment in a line: rubidium (Rb+) efflux assay in NGF-differentiated PC-12 cells. The class given is cell-based. Particulars: concentration for 50% of maximal Rb+ efflux, depolarization buffer (15 mM KCl), 10 min at room temperature. The procedure:
Compounds of this invention formula were evaluated as KCNQ 2/3 modulators by measuring rhubidium release in the following assay.
Methods: PC-12 cells were grown at 37° C. and 5% CO2 in DMEM/F12 Medium supplemented with 10% horse serum, 5% fetal bovine serum, 2 mM glutamine, 100 U/ml penicillin, 100 U/ml streptomycin. They were plated in poly-D-lysine-coated 96-well cell culture microplates at a density of 40,000 cells/well and differentiated with 100 ng/ml NGF-7s for 2-5 days. For the assay, the medium was aspirated and the cells were washed once with 0.2 ml in wash buffer (25 mM Hepes, pH 7.4, 150 mM NaCl, 1 mM MgCl2, 0.8 mM NaH2PO4, 2 mM CaCl2). The cells were then loaded with 0.2 ml Rb^+ loading buffer (wash buffer plus 5.4 mM […], 5 mM glucose) and incubated at 37° C. for 2 h. Attached cells were quickly washed three times with buffer (same as Rb^+ loading buffer, but containing 5.4 mM KCl instead of RbCl) to remove extracellular Rb^+. Immediately following the wash, 0.2 ml of depolarization buffer (wash buffer plus 15 mM KCl) with or without compounds was added to the cells to activate efflux of potassium ion channels. After incubation for 10 min at room temperature, the supernatant was carefully removed and collected. Cells were lysed by the addition of 0.2 ml of lysis buffer (depolarization buffer plus 0.1% Triton X-100) and the cell lysates were also collected. If collected samples were not immediately analyzed for Rb^+ contents by atomic absorption spectroscopy (see below), they were stored at 4° C. without any negative effects on subsequent Rb^+ analysis.
The concentration of Rb^+ in the supernatants (Rb^+Sup) and cell lysates (Rb^+Lys) was quantified using an ICR8000 flame atomic absorption spectrometer (Aurora Biomed Inc., Vancouver, B.C.) under conditions defined by the manufacturer. One 0.05 ml samples were processed automatically from microtiter plates by dilution with an equal volume of Rb^+ sample analysis buffer and injection into an air-acetylene flame. The amount of Rb^+ in the sample was measured by absorption at 780 nm using a hollow cathode lamp as light source and a PMT detector. A calibration curve covering the range 0-5 mg/L Rb^+ in sample analysis buffer was generated with each set of plates. The percent Rb^+ efflux (F) was defined by
F=[Rb^+Sup/(Rb^+Sup+Rb^+Lys)]×100%.
The effect (E) of a compound was defined by:
where the Fc is the efflux in the presence of compound in depolarization buffer, Fb is the efflux in basal buffer, and Fs is the efflux in depolarization buffer, and. The effect (E) and compound concentration relationship was plotted to calculate an EC50 value, a compound's concentration for 50% of maximal Rb^+ efflux. Legend: A: EC50<50 nM; B: EC50=50 nM-200 nM; C: EC50=200 nM-1.0 μM; D: EC50=1.0 μM-10 μM; E: EC50>10 μM
As usually defined, the EC50 is the concentration that produces a half-maximal response. The low end stands for higher potency in that assay, the high end for lower potency in that assay. As for `Cc1ccc(N2CCc3ccccc3C2)cc1NC(=O)CC(C)(C)C`, the EC50 was in the range of 200 to 1000 nM.
In turn, `Cc1c(NC(=O)CC(C)(C)C)cccc1N1CCOCC1` had a concentration for a half-maximal effect (EC50) of more than 10000 nM.
`Cc1ccc(NCc2ccc(C(F)(F)F)cc2)c(C)c1NC(=O)CC(C)(C)C` came in with an EC50 of 200 to 1000 nM.
With `COc1ccc(NCc2ccc(F)cc2)c(C)c1NC(=O)CCC1CCCC1` the figure was 50 to 200 nM; with `CC(C)(C)CC(=O)Nc1cc(N2CCOCC2)c(F)cc1F`, 1000 to 10000 nM.
With `CCc1c(NCc2ccc(F)cc2)ccc(C)c1NC(=O)CC(C)(C)C` the figure was 50 to 200 nM; with `Cc1ccc(NCc2ccc(F)cc2)c(Cl)c1NC(=O)CC(C)(C)C`, 50 to 200 nM.
Molecule `CC(C)(C)CC(=O)Nc1ccc(F)c(N2CCOCC2)c1` returned an EC50 of more than 10000 nM.
As for `COc1ccc(N2CCOCC2)c(C)c1NC(=O)CC(C)(C)C`, the EC50 fell in the range of 1000 to 10000 nM.
Under `Cc1ccc(NCc2ccc(F)cc2)cc1NC(=O)CC(C)(C)C` stands 200 to 1000 nM; under `Cc1ccc(NCc2ccc(C(F)(F)F)cc2)c(C)c1NC(=O)CCC1CCCC1`, less than 50 nM; under `Cc1ccc(NC(=O)CC(C)(C)C)cc1N1CCOCC1`, 1000 to 10000 nM.
Under `Cc1c(N2CCOCC2)ccc(F)c1NC(=O)CC(C)(C)C` stands 1000 to 10000 nM; under `Cc1ccc(N2CCOCC2)cc1NC(=O)CC(C)(C)C`, more than 10000 nM; under `Cc1ccc(NCc2ccc(F)cc2)c(C)c1NC(=O)CC(C)(C)C`, 50 to 200 nM.
With `Cc1ccc(N2CCOCC2)c(C)c1NC(=O)CC(C)(C)C` the figure was 1000 to 10000 nM; with `Cc1ccc(NCc2ccc(F)cc2)c(C)c1NC(=O)CCC1CCCC1`, less than 50 nM; with `CCc1ccc(NCc2ccc(F)cc2)c(CC)c1NC(=O)CCC1CCCC1`, less than 50 nM.
With `Cc1cc(Cl)c(N2CCOCC2)cc1NC(=O)CC(C)(C)C`, the concentration for a half-maximal effect (EC50) lay within 1000 to 10000 nM.
For `CCc1ccc(NCc2ccc(F)cc2)c(C)c1NC(=O)CC(C)(C)C`, the EC50 fell in the range of 50 to 200 nM.
Under `Cc1c(NCc2ccc(F)cc2)cccc1NC(=O)CC(C)(C)C` stands 50 to 200 nM.
